Assay results: patent US20220153746A1, “NITROGEN OXIDE-DONATING PDE-5 AND/OR PDE-6 INHIBITOR COMPOUNDS, AND USES THEREOF” (ILDONG PHARMACEUTICAL CO., LTD., priority 2020, published 2022)
Where two headings read alike, the source gives them in different places.

Test: PK Phase (Group 2): plasma concentrations and pharmacokinetics of Compound 18 and its metabolite Compound 4 after once daily ocular instillation of Compound 18 nanosuspension for 7 days
Type: in vivo, New Zealand white rabbits
Settings: male, New Zealand white, rabbit, plasma; for concentration at 8 h / concentration at 24 h: 0.821 mg/kg/day; for Cmax / Tmax / AUC(0-t): topical or ocular, 0.8 mg/kg; for AUC(0-t): read-out: AUC0-24
Source text: This example illustrates the procedures and results for the levels of Compound 18 and its metabolite Compound 4 in plasma and ocular tissues of normotensive rabbits following ocular instillation of Compound 18 once daily for 7 consecutive days.
Twenty five (25) male New Zealand white rabbits were divided into 5 groups of varying amounts of animals per group.
The Test article, Compound 18 was formulated as a 2% nanosuspension in DI water containing 0.2% PS80 (polyoxyethylenesorbitan, monooleate (Tween 80)) and 0.4% HPMC (hydroxypropylmethylcellulose) at pH 6.77. Referred to herein as “Compound 18 nanosuspension.”
The study consisted of three groups (Groups 1-3) of 19 male rabbits (NZW) that underwent once daily morning ocular installation (1 eyedrop) for 7 consecutive days (Day 0-6). Groups 4-5 each consisted of 3 male rabbits (NZW) that were not dosed.
Blood samples (1 mL) were collected from the jugular vein at the intervals set out below for each group. The samples were then inverted several times following collection and held on wet ice until centrifuged. Samples were centrifuged within 60 minutes of collection under refrigeration (set at 5° C. for 10 minutes at 2000 g. […]
Plasma and tissue samples from treated animals (Groups 1-3) were analyzed for Compound 18 and its metabolite Compound 4 concentrations by LC-MS/MS.
Pharmacokinetic analysis was conducted using WinNonlin Version 6.2.1 (Pharsight, Mountain View, Calif.), operating as a validated software system. Noncompartmental analysis was conducted using the extravascular administration model for ocular instillation dosing.
The peak plasma concentration, time to achieve peak plasma concentration, half-life, and area under the plasma concentration-time curve (Cmax, Tmax, T1/2, and AUC) were calculated from the PK phase individual animal plasma concentrations for each sampling time/dose group for Compound 18 and its metabolite Compound 4.
BA Assay: Quantitation Range 0.05 to 100 ng/mL for Compound 18, 0.15 to 100 ng/mL for Compound 4.
Plasma calibration standards (PLSTD-A) with Compound 18 concentrations ranging from 0.0500 to 100 ng/mL were prepared by spiking control rabbit plasma with appropriate calibration curve spiking solutions (SS-A). PLQC-A samples with concentrations of 0.150, 5.00, 50.0, and 80.0 ng/mL were prepared by spiking control rabbit plasma with appropriate SS-A-QC spiking solutions.
Plasma calibration standards (PLSTD-B) with Compound 4 concentrations ranging from 0.150 to 100 ng/mL were prepared by spiking control rabbit plasma with appropriate calibration curve spiking solutions (SS-B). PLQC-B samples with concentrations of 0.450, 5.00, 50.0, and 80.0 ng/mL were prepared by spiking control rabbit plasma with appropriate SS-B-QC spiking solutions. PLQC-B-Dil samples at 800 ng/mL were prepared by spiking control rabbit plasma with the SS-B-QC-Dil spiking solution at 16,000 ng/mL, and then diluted 20× with control rabbit plasma prior to extraction.
1. Thaw plasma standards, plasma QC samples, ocular tissue QC samples, incurred plasma samples and ocular tissue samples (AH/VH) (if applicable) on wet ice. Control plasma can be thawed in tepid water. Vortex before taking aliquots.
2. Pipet 50 μL of water for Reagent Blank, 50 μL of control plasma for Double Blank and Blank, 50 μL of pre-spiked plasma for Standards and QC samples, 50 μL of incurred plasma samples (if applicable) into a 96 well plate.
5. Add 200 μL of working internal standard (WIS) solution to all remaining samples.
6. Seal the plate and vortex for approximately 5 minutes. Centrifuge the plate at 3500 rpm for 10 minutes at ˜4° C.
7. Transfer ˜200 μL of each sample supernatant into the appropriate wells of a 96 well plate. Submit for LC MS/MS analysis.
A total of 25 rabbits were used for this study, including 19 treated rabbits and 6 control rabbits. […]

[1] = other: ocular instillation (eye drop), Mean of 4 animals, BQL set to 0, read-out: Day 7 Compound 18 Plasma Concentration
[2] = other: ocular instillation (eye drop), animal 207666, read-out: Day 7 Compound 18 Plasma Concentration
[3] = other: ocular instillation, 0.8 mg/kg/day, Mean of 4 animals, BQL set to 0, read-out: Day 1 Compound 18 Plasma Concentration
[4] = other: ocular instillation, 0.8 mg/kg/day, animal 207666, read-out: Day 1 Compound 18 Plasma Concentration
[5] = other: ocular instillation, 0.8 mg/kg/day, animal 207667, read-out: Day 1 Compound 18 Plasma Concentration
[6] = Day 1, Compound 18 0.8 mg/kg ocular instillation, Mean, n=4
[7] = Day 1, Compound 18 0.8 mg/kg ocular instillation, animal 207664
[8] = Day 1, Compound 18 0.8 mg/kg ocular instillation, animal 207665
[9] = Day 1, Compound 18 0.8 mg/kg ocular instillation, animal 207666
[10] = Day 1, Compound 18 0.8 mg/kg ocular instillation, animal 207667
[11] = Day 7, Compound 18 0.8 mg/kg ocular instillation, Mean, n=4
[12] = Day 7, Compound 18 0.8 mg/kg ocular instillation, animal 207664
[13] = Day 7, Compound 18 0.8 mg/kg ocular instillation, animal 207665
[14] = Day 7, Compound 18 0.8 mg/kg ocular instillation, animal 207666
[15] = Day 7, Compound 18 0.8 mg/kg ocular instillation, animal 207667

Structure (SMILES): CCCc1nn(C)c2c(=O)[nH]c(-c3cc(S(=O)(=O)N4CC(CCCO[N+](=O)[O-])C4)ccc3OCC)nc12 [Compound 18, 3-(1-((4-ethoxy-3-(1-methyl-7-oxo-3-propyl-6,7-dihydro-1H-pyrazolo[4,3-d]pyrimidin-5-yl)phenyl)sulfonyl)azetidin-3-yl)propyl nitrate]
- concentration at 8 h [1]: 0.0279 ng/mL
- concentration at 8 h (other: ocular instillation (eye drop), animal 207665, read-out: Day 7 Compound 18 Plasma Concentration): 0.0505 ng/mL
- concentration at 8 h [2]: 0.0611 ng/mL
- concentration at 24 h (other: ocular instillation (eye drop), Mean of 4 animals, BQL set to 0, read-out: Day 1 Compound 18 Plasma Concentration): 0.0171 ng/mL
- concentration at 24 h [1]: 0.0401 ng/mL
- concentration at 24 h (other: ocular instillation (eye drop), animal 207666, read-out: Day 1 Compound 18 Plasma Concentration): 0.0682 ng/mL
- concentration at 24 h [2]: 0.0989 ng/mL
- concentration at 24 h (other: ocular instillation (eye drop), animal 207667, read-out: Day 7 Compound 18 Plasma Concentration): 0.0614 ng/mL
- concentration at 0.5 h (other: ocular instillation (eye drop), 2 mg/day, animal 207664, read-out: Day 1 Compound 18 Plasma Concentration): 0.0863 ng/mL
- concentration at 0.5 h [3]: 0.161 ng/mL
- concentration at 0.5 h (other: ocular instillation, 0.8 mg/kg/day, animal 207665, read-out: Day 1 Compound 18 Plasma Concentration): 0.0721 ng/mL
- concentration at 0.5 h [4]: 0.313 ng/mL
- concentration at 0.5 h [5]: 0.171 ng/mL
- concentration at 1 h [3]: 0.0601 ng/mL
- concentration at 1 h [4]: 0.183 ng/mL
- concentration at 1 h [5]: 0.0575 ng/mL
- Cmax [6]: 0.161 ± 0.111 ng/mL
- Tmax [6]: 30 min
- AUC(0-t) [6]: 0.311 ± 0.488 ng·h/mL
- Cmax [7]: 0.0863 ng/mL
- Tmax [7]: 30 min
- AUC(0-t) [7]: 0.0216 ng·h/mL
- Cmax [8]: 0.0721 ng/mL
- Tmax [8]: 30 min
- AUC(0-t) [8]: 0.018 ng·h/mL
- Cmax [9]: 0.313 ng/mL
- Tmax [9]: 30 min
- AUC(0-t) [9]: 1.04 ng·h/mL
- Cmax [10]: 0.171 ng/mL
- Tmax [10]: 30 min
- AUC(0-t) [10]: 0.17 ng·h/mL
- Cmax [11]: 0.17 ± 0.105 ng/mL
- Tmax [11]: 156 ± 216 min
- AUC(0-t) [11]: 0.754 ± 0.794 ng·h/mL
- Cmax [12]: 0.306 ng/mL
- Tmax [12]: 60 min
- AUC(0-t) [12]: 0.372 ng·h/mL
- Cmax [13]: 0.0505 ng/mL
- Tmax [13]: 480 min
- AUC(0-t) [13]: 0.101 ng·h/mL
- Cmax [14]: 0.163 ng/mL
- Tmax [14]: 30 min
- AUC(0-t) [14]: 1.9 ng·h/mL
- Cmax [15]: 0.161 ng/mL
- Tmax [15]: 60 min
- AUC(0-t) [15]: 0.644 ng·h/mL
